Like-named read-outs stand apart in the source and are kept apart here. Where a SMILES comes first, the peptide text is derived from it. Bridges are numbered along the chain shown (N, C = ends). Where no end group is shown, it is not given here. [ ]: non-standard residue; d: D form. The star is where a group is joined. Val(Nα-amidino) = CC(C)[C@H](NC(=N)N)C(=O)*; Gly(cPent) = N[C@H](C(=O)O)C1CCCC1; Hyp = O=C(O)[C@@H]1C[C@@H](O)CN1; Pen = CC(C)(S)[C@H](N)C(=O)O; dDab = NCC[C@@H](N)C(=O)O; Orn = NCCC[C@H](N)C(=O)O; Dab = NCC[C@H](N)C(=O)O
Columns and labels:
Assay type in all cases: cell-based
[1] = tested on: Escherichia coli MCR-1 Af 45
Summary of the method: (§1)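 CLSI broth microdilution, slightly modified: cation-adjusted Mueller-Hinton II broth with about 5×10^5 CFU/mL from a 0.5 McFarland suspension, and two-fold serial peptide dilutions with Polysorbate 80 at 0.002% final. MIC (μg/mL) was the lowest concentration with no visible growth after 18-20 hours at 35° C.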

[2] = tested on: Escherichia coli ATCC 25922
Summary of the method: as §1

[3] = tested on: Klebsiella pneumoniae SSI3010
Summary of the method: as §1

[4] = tested on: human red blood cells (hRBC)
Summary of the method: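 Percent hemolysis derived from OD540 of supernatants relative to full lysis by 2.5% Triton X-100 (PBS baseline). Washed fresh human erythrocytes (20% v/v) were exposed to 200 μg/mL peptide for 1 h at 37 °C with shaking.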

[5] = red cells of human, 1 h, 200 μg/mL
[6] = Mueller-Hinton broth II, no visible growth after 18-20 hours at 35° C.

Compound | Escherichia coli MCR-1 Af45 MIC ([1]; MCR-1 Af 45) | Escherichia coli ATCC 25922 MIC ([2]; ATCC 25922) | Klebsiella pneumoniae SSI3010 MIC ([3]; SSI3010) | Hemolysis at 0.2 g/L [4, 5] | Escherichia coli MCR-1 Af45 MIC [1, 6] | Escherichia coli ATCC 25922 MIC [2, 6] | Klebsiella pneumoniae SSI3010 MIC [3, 6] | Hemolysis at 0.2 g/L [4]
CC[C@H](C)[C@H](NC(=O)[C@@H]1C[C@@H](O)CN1C(=O)[C@@H](NC(=N)N)C(C)C)C(=O)N[C@@H]1C(=O)N[C@@H](Cc2ccc(O)cc2)C(=O)N[C@@H]([C@@H](C)O)C(=O)N[C@@H](CC(N)=O)C(=O)N[C@@H](CCCNC(=N)N)C(=O)N[C@@H](CCN)C(=O)N[C@@H]([C@@H](C)O)C(=O)N[C@H](CCN)C(=O)N[C@@H](CCCN)C(=O)N[C@@H](CCN)C(=O)N[C@@H](CO)C(=O)N[C@H](C(=O)N[C@@H](Cc2ccc(O)cc2)C(=O)O)CSSC1(C)C [Example 128, Gua-Val-Hyp-Ile-Pen-Tyr-Thr-Asn-Arg-Dab-Thr-^DDab-Orn-Dab-Ser-Cys-Tyr] ({Val(Nα-amidino)}-[Hyp]I[Pen]YTNR[Dab]T[dDab][Orn][Dab]SCY-OH; disulfide 3-14) | 0.125 µg/mL | 0.125 µg/mL | 0.25 µg/mL | <1% | – | – | – | –
CC[C@H](C)[C@H](NC(=O)[C@@H]1C[C@@H](O)CN1C(=O)[C@@H](NC(=N)N)C(C)C)C(=O)N[C@@H]1C(=O)N[C@@H](Cc2ccc(O)cc2)C(=O)N[C@@H](CCN)C(=O)N[C@@H](CC(N)=O)C(=O)N[C@@H](CCCNC(=N)N)C(=O)N[C@@H](CCN)C(=O)N[C@@H]([C@@H](C)O)C(=O)N[C@H](CCN)C(=O)N[C@@H](CCN)C(=O)N[C@@H]([C@@H](C)O)C(=O)N[C@@H](CO)C(=O)N[C@H](C(=O)N[C@@H](Cc2ccc(O)cc2)C(=O)O)CSSC1(C)C [Example 129, Gua-Val-Hyp-Ile-Pen-Tyr-Dab-Asn-Arg-Dab-Thr-^DDab-Dab-Thr-Ser-Cys-Tyr] ({Val(Nα-amidino)}-[Hyp]I[Pen]Y[Dab]NR[Dab]T[dDab][Dab]TSCY-OH; disulfide 3-14) | 0.125 µg/mL | 0.125 µg/mL | 0.5 µg/mL | <1% | – | – | – | –
CC[C@H](C)[C@H](NC(=O)[C@@H]1C[C@@H](O)CN1C(=O)[C@@H](NC(=N)N)C(C)C)C(=O)N[C@@H]1C(=O)N[C@@H](Cc2ccc(O)cc2)C(=O)N[C@@H](CCN)C(=O)N[C@@H](CC(N)=O)C(=O)N[C@@H](CCCNC(=N)N)C(=O)N[C@@H](CCN)C(=O)N[C@@H]([C@@H](C)O)C(=O)N[C@H](CCN)C(=O)N[C@@H](CCCN)C(=O)N[C@@H]([C@@H](C)O)C(=O)N[C@@H](CO)C(=O)N[C@H](C(=O)N[C@@H](Cc2ccc(O)cc2)C(=O)O)CSSC1(C)C [Example 130, Gua-Val-Hyp-Ile-Pen-Tyr-Dab-Asn-Arg-Dab-Thr-^DDab-Orn-Thr-Ser-Cys-Tyr] ({Val(Nα-amidino)}-[Hyp]I[Pen]Y[Dab]NR[Dab]T[dDab][Orn]TSCY-OH; disulfide 3-14) | 0.125 µg/mL | 0.125 µg/mL | 0.25 µg/mL | <1% | – | – | – | –
CC[C@H](C)[C@H](NC(=O)[C@@H]1C[C@@H](O)CN1C(=O)[C@@H](NC(=N)N)C(C)C)C(=O)N[C@@H]1C(=O)N[C@@H](Cc2ccc(O)cc2)C(=O)N[C@@H]([C@@H](C)O)C(=O)N[C@@H](CC(N)=O)C(=O)N[C@@H](CCCNC(=N)N)C(=O)N[C@@H](CCN)C(=O)N[C@@H]([C@@H](C)O)C(=O)N[C@H](CCN)C(=O)N[C@@H](CCCCN)C(=O)N[C@@H](CCN)C(=O)N[C@@H]([C@@H](C)O)C(=O)N[C@H](C(=O)N[C@@H](Cc2ccc(O)cc2)C(=O)O)CSSC1(C)C [Example 131, Gua-Val-Hyp-I-Pen-Tyr-Thr-Asn-Arg-Dab-Thr-^DDab-Lys-Dab-Thr-Cys-Tyr] ({Val(Nα-amidino)}-[Hyp]I[Pen]YTNR[Dab]T[dDab]K[Dab]TCY-OH; disulfide 3-14) | 0.125 µg/mL | 0.25 µg/mL | 0.5 µg/mL | <1% | – | – | – | –
CC[C@H](C)[C@H](NC(=O)[C@@H]1C[C@@H](O)CN1C(=O)[C@@H](NC(=N)N)C(C)C)C(=O)N[C@@H]1C(=O)N[C@@H](Cc2ccc(O)cc2)C(=O)N[C@@H]([C@@H](C)O)C(=O)N[C@@H](CC(N)=O)C(=O)N[C@@H](CCCNC(=N)N)C(=O)N[C@@H](CCN)C(=O)N[C@@H]([C@@H](C)O)C(=O)N[C@H](CCN)C(=O)N[C@@H](CCN)C(=O)N[C@@H](CCN)C(=O)N[C@@H]([C@@H](C)O)C(=O)N[C@H](C(=O)N[C@@H](Cc2ccc(O)cc2)C(=O)O)CSSC1(C)C [Example 132, Gua-Val-Hyp-Ile-Pen-Tyr-Thr-Asn-Arg-Dab-Thr-^DDab-Dab-Dab-Thr-Cys-Tyr] ({Val(Nα-amidino)}-[Hyp]I[Pen]YTNR[Dab]T[dDab][Dab][Dab]TCY-OH; disulfide 3-14) | 0.125 µg/mL | 0.25 µg/mL | 0.25 µg/mL | <1% | – | – | – | –
CC[C@H](C)[C@H](NC(=O)[C@@H]1C[C@@H](O)CN1C(=O)[C@@H](NC(=N)N)C(C)C)C(=O)N[C@@H]1C(=O)N[C@@H](Cc2ccc(O)cc2)C(=O)N[C@@H]([C@@H](C)O)C(=O)N[C@@H](CC(N)=O)C(=O)N[C@@H](CCCNC(=N)N)C(=O)N[C@@H](CCN)C(=O)N[C@@H]([C@@H](C)O)C(=O)N[C@H](CCN)C(=O)N[C@@H](CCCN)C(=O)N[C@@H](CCN)C(=O)N[C@@H]([C@@H](C)O)C(=O)N[C@H](C(=O)N[C@@H](Cc2ccc(O)cc2)C(=O)O)CSSC1(C)C [Example 133, Gua-Val-Hyp-Ile-Pen-Tyr-Thr-Asn-Arg-Dab-Thr-^DDab-Orn-Dab-Thr-Cys-Tyr] ({Val(Nα-amidino)}-[Hyp]I[Pen]YTNR[Dab]T[dDab][Orn][Dab]TCY-OH; disulfide 3-14) | 0.125 µg/mL | 0.25 µg/mL | 0.25 µg/mL | <1% | – | – | – | –
CC(C)[C@H](NC(=N)N)C(=O)N1C[C@H](O)C[C@H]1C(=O)N[C@H](C(=O)N[C@@H]1C(=O)N[C@@H](Cc2ccc(O)cc2)C(=O)N[C@@H]([C@@H](C)O)C(=O)N[C@@H](CC(N)=O)C(=O)N[C@@H](CCCNC(=N)N)C(=O)N[C@@H](CCN)C(=O)N[C@@H]([C@@H](C)O)C(=O)N[C@H](CCN)C(=O)N[C@@H](CO)C(=O)N[C@@H](CCN)C(=O)N[C@@H](CCN)C(=O)N[C@H](C(=O)N[C@@H](Cc2ccc(O)cc2)C(=O)O)CSSC1(C)C)C1CCCC1 [Example 134, Gua-Val-Hyp-Cpg-Pen-Tyr-Thr-Asn-Arg-Dab-Thr-^DDab-Ser-Dab-Dab-Cys-Tyr] ({Val(Nα-amidino)}-[Hyp][Gly(cPent)][Pen]YTNR[Dab]T[dDab]S[Dab][Dab]CY-OH; disulfide 3-14) | 0.125 µg/mL | 0.125 µg/mL | 0.25 µg/mL | <1% | – | – | – | –
CC[C@H](C)[C@H](NC(=O)[C@@H]1C[C@@H](O)CN1C(=O)[C@@H](NC(=N)N)C(C)C)C(=O)N[C@H]1CCNC(=O)CC[C@@H](C(=O)N[C@@H](Cc2ccc(O)cc2)C(=O)O)NC(=O)[C@H](CCN)NC(=O)[C@H](CCN)NC(=O)[C@H](CCN)NC(=O)[C@@H](CCN)NC(=O)[C@H]([C@@H](C)O)NC(=O)[C@H](CCN)NC(=O)[C@H](CCCNC(=N)N)NC(=O)[C@H](CC(N)=O)NC(=O)[C@H]([C@@H](C)O)NC(=O)[C@H](Cc2ccc(O)cc2)NC1=O [Example 135, Gua-Val-Hyp-Ile-Dab-Tyr-Thr-Asn-Arg-Dab-Thr-^DDab-Dab-Dab-Dab-Glu-Tyr] ({Val(Nα-amidino)}-[Hyp]I[Dab]YTNR[Dab]T[dDab][Dab][Dab][Dab]EY-OH; lactam 3-14) | 0.0625 µg/mL | 0.125 µg/mL | 0.125 µg/mL | <1% | – | – | – | –
CC[C@H](C)[C@H](NC(=O)[C@@H]1C[C@@H](O)CN1C(=O)[C@@H](NC(=N)N)C(C)C)C(=O)N[C@H]1CCNC(=O)CC[C@@H](C(=O)N[C@@H](Cc2ccc(O)cc2)C(=O)O)NC(=O)[C@H](CCN)NC(=O)[C@H](CCN)NC(=O)[C@H](C(C)C)NC(=O)[C@@H](CCN)NC(=O)[C@H]([C@@H](C)O)NC(=O)[C@H](CCN)NC(=O)[C@H](CCCNC(=N)N)NC(=O)[C@H](CC(N)=O)NC(=O)[C@H]([C@@H](C)O)NC(=O)[C@H](Cc2ccc(O)cc2)NC1=O [Example 136, Gua-Val-Hyp-Ile-Dab-Tyr-Thr-Asn-Arg-Dab-Thr-^DDab-Val-Dab-Dab-Glu-Tyr] ({Val(Nα-amidino)}-[Hyp]I[Dab]YTNR[Dab]T[dDab]V[Dab][Dab]EY-OH; lactam 3-14) | 0.125 µg/mL | 0.125 µg/mL | 0.5 µg/mL | <1% | – | – | – | –
Val-Hyp-Ile-Pen-Tyr-Ser-Asn-Arg-Dab-Thr-^DDab-Lys-Dab-Ser-Cys-Tyr (V[Hyp]I[Pen]YSNR[Dab]T[dDab]K[Dab]SCY; disulfide 4-15) [Example 57] | – | – | – | – | 0.25 µg/mL | 0.25 µg/mL | 0.5 µg/mL | <1%
